“And” between values parts separate entries of the source, which are not always exact repeats. Equal values may be shown once.
Key:
[1] = GCV serum and tissue concentration by miniosmotic pump (HPLC)
Experimental: Transgenic mice from founder line 563 and their non-transgenic litter mates were treated with the nucleoside analog GCV for 1 week by using a miniosmotic pump. […] A separate control group was implanted with a miniosmotic pump containing isotonic phosphate-buffered saline (PBS).

B and T lymphocytes = test: Flow cytometry of B and T lymphocytes after GCV treatment; assay type: in vivo, mouse
Excerpt: Although the pattern of toxicity was clearly lymphoid-specific, it was not possible to evaluate the impact of GCV treatment on subpopulations of B and T cells by visual inspection. Flow cytometry was employed to analyze specific populations of B and T lymphocytes in mice subjected to various GCV treatment protocols. B lymphocytes were identified by analyzine for the markers, immunoglobulin and B220, and T lymphocytes were identified by Thy-1. After 7 days of GCV treatment, striking and different effects were observed on B and T lymphocytes in spleens of KHTK mice (FIG. 4). The most dramatic impact was on immunoglobulin and B220-positive B cells, which were reduced by a factor of 20 after GCV treatment. Cells bearing the T-cell surface marker, Thy-1, had decreased to 35% of the PBS group. Thus, although both B and T cells in the periphery were sensitive to the toxic action of GCV, B-cell lineages were more susceptible to ablation.
Mice of transgenic line 552 or nontransgenic littermates were treated with GCV for 5 days. The thymuses of individual mice were assayed by two-color flow cytometry and reported as a percentage of total thymocytes expressing the indicated markers. Data are typical of three experiments.
Mice were treated with GCV for 5 days and then two-color flow cytometry was performed to assess the effect of GCV treatment on double-positive, single-positive, and double-negative populations. In non-transgenic mice, 80% of cells were double-positive, 14% were single-positive, and 5% were double-negative. The composition of cells surviving GCV treatment in transgenic mice was markedly altered from that of the control population. There was a relative depletion by a factor of 4 in the double-positive L3T4^+, Lyt-2^+ population and a 3- to 5-fold increase in single-positive L3T4^+, Lyt-2^− and L3T4^−, Lyt-2^+ cells. There was also an increase in the percentage of cells expressing T-cell receptor complex-associated molecule CD3.ε. […] There was also a 6-fold increase in L3T4^−, Lyt-2^− cells. […] It should be pointed out that, although single-positive and CD3^+ cells are relatively enriched in the thymus of drug-treated animals (i.e., percentage), in terms of absolute cell number all thymic lineages are ablated in drug-treated transgenic animals.

thymocytes = test: Recovery of the lymphoid system following GCV treatment; assay type: in vivo, mouse
Experimental: Recovery of the Lymphoid System following GCV Treatment. One potential advantage of the conditional ablation method is the ability to remove the drug and evaluate the regenerative capabilities of the affected cell lineages. Repopulation of specific thymocyte lineages in KHTK mice was examined by subjecting mice to a severe ablation of lymphoid tissues followed by a recovery period. Accordingly, one group of animals was treated with GCV or PBS for 7 days followed by a 7-day recovery period. All groups were assayed simultaneously for the total number of thymocytes and the presence of specific antigenic markers. Transgenic mice treated with PBS had 1.1×10^8 thymocytes, whereas, after 7 days of GCV treatment, >99% of the thymocyte population was depleted. After 7 days of recovery, the total number of cells increased by 60-fold to nearly 50% of the PBS-treated control group. To characterize specific populations of thymocytes in the depleted and recovery thymus, […] flow cytometry was performed. […] Nontransgenic mice treated with GCV had the same percentage of L3T4^+ and Lyt-2^+ thymocytes as PBS-treated animals.

[2] = test system: Abelson leukemia virus induced lymphomas; test: Lymphoma response to GCV in HSV-TK transgenic and nontransgenic mice; assay type: in vivo, mouse
Experimental: Lymphomas were induced by injecting 5 to 6 week old transgenic mice (generated as described in Example III) intravenously with 0.5 ml of cell-free medium from confluent cultures of 1806-6 cells grown in Dulbecco's medium containing 7% calf serum and 7% fetal bovine serum (Green et al., 1987). These cells produce helper-free Abelson leukemia virus, which induces monoclonal lymphomas principally of the fre-B cell type. The virus encodes a transforming protein but is defective and therefore incapable of replicating or of encoding retroviral antigens in the lymphoma cells it helps to generate. Starting 14 days after virus administration, the mice were palpated daily for lymphomas. These were detectable as small, firm, bilateral nodules in the inguinal region, representing enlarged inguinal lymph nodes. In most cases, the presence of the tumors could be suspected 1-2 days preceding a definitive diagnosis, but the latter was made only after daily palpation confirmed the presence and the growing nature of the enlarged nodes. In the litters used, more than 90% of the injected mice developed lymphomas.
In initial experiments, several transgenic mice were treated with GCV for 5 days (10 doses) without precautions against infection, based on dose schedules previously found to be well tolerated in nontransgenic mice [Moolten, Cancer Res. 46:5276-5281 (1986)]. […] Presuming these deaths to be due to infections consequent to the lymphoid depletion, we limited the GCV therapy to five doses for the subsequent trials reported below and instituted the short-term infection control regimen detailed above, which entailed the use of sterile cages and sterile food and water during a 21-day isolation period. These modifications eliminated all drug-related deaths.
GCV treatment was begun when lymphomas first appeared. […] After it was determined that death inevitably followed these preterminal symptoms, usually within 4 days, were killed animals when the symptoms first appeared rather than utilizing natural death as a survival end point; in the few cases where mice died with large tumors but without preterminal symptoms, the day of natural death was recorded as the end point. This practice introduced about 4 days of imprecision into the estimates of median survival but conforms to current humane guidelines [Medical Research Council, UK Coordinating Committee on Cancer Research: guidelines for the welfare of animals in experimental neoplasia (1988); Kallman et al., Cancer Res. 45:6541-6544 (1985)]. The transgenic mice and littermates were used from 10 litters born to 6 female line 563 transgenic mice mated to BALB/c males. The other nontransgenic controls listed comprised, in the GCV-treated group, 15 C57B1/6×BALB/c (CB6) mice F1 and F2generations) and 8 CB6F1×BALB/c mice, and in the untreated group 29 CB6 (F1 and F2,5 CB6F1×BALB/c, and 15 BALB/c mice. Since the founder mouse of the 563 line was heterozygous for genes derived from C57B1/6 and BALB/c mice, these additional mice complemented the littermate controls by eliminating the possibility that differences between transgenic mice and their littermates were attributable not to the transgene itself but to some other endogenous gene affecting the behavior of lymphomas that differ between C57B1/6 and BALB/c mice and which by accident of integration site found itself genetically linked to the transgene.

[3] = test system: thymus, spleen, bone marrow and mesenteric lymph nodes
Excerpt: The pathologic effect of GCV treatment was further evaluated by histological analysis.

[4] = nontransgenic littermates, GCV 5 days
[5] = transgenic line 552, GCV 5 days
[6] = transgenic vs nontransgenic, GCV 5 days
[7] = after 7 days of recovery following 7 days GCV
[8] = HSV-TK transgenics, GCV five doses
[9] = Nontransgenics Line 563 littermates, GCV
[10] = transgenic line 563, 7 days GCV

Nc1nc2c(ncn2COC(CO)CO)c(=O)[nH]1 [GCV, 9-[(1,3-dihydroxy-2-propoxy)methyl]guanine]
steady-state serum concentration ([1]; miniosmotic pump, within 24 hr, HPLC): 1 to 5 µM
concentration of GCV in all tissues assayed ([1]; relative to serum 1-5 μM): comparable to this value
Thy-1 bearing cells in spleen (B and T lymphocytes; KHTK mice, 7 days GCV): 35 % of the PBS group
reduction factor of immunoglobulin and B220-positive B cells in spleen (B and T lymphocytes; KHTK mice, 7 days GCV): 20
single-positive cells (B and T lymphocytes; non-transgenic mice, GCV 5 days): 14%
% thymocytes CD3.ε+ (B and T lymphocytes; [4]): 35%
% thymocytes L3T4+, Lyt-2+ (B and T lymphocytes; [4]): 80%
% thymocytes L3T4+, Lyt-2- (B and T lymphocytes; [4]): 10%
% thymocytes L3T4-, Lyt-2+ (B and T lymphocytes; [4]): 4%
% thymocytes L3T4-, Lyt-2- (B and T lymphocytes; [4]): 5%
Total cell number (thymus) (B and T lymphocytes; [4]): 6.3 × 10^7
profile of antigenic markers (B and T lymphocytes; nontransgenic mice treated with GCV): normal
% thymocytes CD3.ε+ (B and T lymphocytes; [5]): 76%
% thymocytes L3T4+, Lyt-2+ (B and T lymphocytes; [5]): 21%
% thymocytes L3T4+, Lyt-2- (B and T lymphocytes; [5]): 27%
% thymocytes L3T4-, Lyt-2+ (B and T lymphocytes; [5]): 21%
% thymocytes L3T4-, Lyt-2- (B and T lymphocytes; [5]): 30%
Total cell number (thymus) (B and T lymphocytes; [5]): 3.8 × 10^6
increase in L3T4-, Lyt-2- cells (B and T lymphocytes; [6]): 6 fold
relative depletion factor of double-positive L3T4+, Lyt-2+ population (B and T lymphocytes; [6]): 4
increase of total number of thymocytes (thymocytes; [7]): 60 fold
total number of thymocytes relative to PBS-treated control group (thymocytes; [7]): ~50%
nonspecific effects on T-cell lineages (thymocytes; nontransgenic mice, GCV 7 days and recovery): no nonspecific effects
thymocyte population depleted (thymocytes; transgenic mice, after 7 days of GCV treatment): > 99%
Fraction of Mice with complete Regressions [2, 8]: 11 of 12 and 11/12
Median survival (days) of mice with recurrent or persistent lymphoma [2, 8]: 39 days
Number remaining recurrence-free for >100 days [2, 8]: 5
Fraction of Mice with complete Regressions [2, 9]: 0/17
Median survival (days) of mice with recurrent or persistent lymphoma [2, 9]: 13 days
Number remaining recurrence-free for >100 days [2, 9]: 0
Fraction of Mice with complete Regressions ([2]; Other nontransgenics, GCV): 0/23
Median survival (days) of mice with recurrent or persistent lymphoma ([2]; Other nontransgenics, GCV): 8 days
Number remaining recurrence-free for >100 days ([2]; Other nontransgenics, GCV): 0
survival of mice with late recurrences ([2]; three transgenic mice, GCV five doses): 47 days and 63 days and 90 days
tumor response ([2]; transgenic mice, GCV 5 days (10 doses), no precautions against infection): regressed and became undetectable after the fifth dose
outcome of mice ([2]; transgenic mice, GCV 5 days (10 doses), no precautions against infection, usually during the second week): the mice died
number of cells in the bone marrow ([3]; GCV-treated transgenic mice): 15 % of control
number of cells in the spleen ([3]; GCV-treated transgenic mice): 15 % of control
number of cells in the thymus ([3]; GCV-treated transgenic mice): 2 % of control
cell counts of lymphoid tissues vs PBS-treated group ([3]; mouse, in vivo): unchanged
pathology in nontransgenic mice ([3]; mouse, in vivo): no apparent pathology
wet weights of lymph nodes [3, 10]: 20 % of control
wet weights of the spleen and thymus [3, 10]: 15 % of control
histology of thymus ([3]; transgenic mice, 7 days GCV): atrophied thymus with a virtual complete absence of the cortex and a hypocellular medulla
